From the supplement of paper PMC10307832

Tests used:
Experiment in all cases: relative viability (nuclei count vs DMSO), 5 days (fraction); higher = more cells survive
[1] = compound: Nc1ccn([C@@H]2O[C@H](CO)[C@@H](O)C2(F)F)c(=O)n1 [Gemcitabine] + CC1(C)CCC(c2ccc(Cl)cc2)=C(CN2CCN(c3ccc(C(=O)NS(=O)(=O)c4ccc(N[C@H](CCN5CCOCC5)CSc5ccccc5)c(S(=O)(=O)C(F)(F)F)c4)cc3)CC2)C1 [Navitoclax] (partner 0.5 µM)
In short: (§1)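 Lung cancer cell lines were pin-tool dosed in 1536-well plates on the day after seeding, with either a lone drug or a fixed anchor-drug dose plus five library-drug doses (not always all listed) in √10 steps. Nuclei were counted on 4× images after 5 days. Relative viability is the ratio of treated-well to vehicle-well nuclei counts, with each value a median of duplicate plates.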

[2] = compound: Nc1ccn([C@@H]2O[C@H](CO)[C@@H](O)C2(F)F)c(=O)n1 [Gemcitabine] + C[C@@H](Oc1cc(-c2cnn(C3CCNCC3)c2)cnc1N)c1c(Cl)ccc(F)c1Cl [Crizotinib] (partner 1 µM)
In short: as §1

[3] = compound: Nc1ccn([C@@H]2O[C@H](CO)[C@@H](O)C2(F)F)c(=O)n1 [Gemcitabine] + Cc1cc(Nc2cc(N3CCN(C)CC3)nc(Sc3ccc(NC(=O)C4CC4)cc3)n2)n[nH]1 [Tozasertib] (partner 0.1 µM)
In short: as §1

[4] = compound: Nc1ccn([C@@H]2O[C@H](CO)[C@@H](O)C2(F)F)c(=O)n1 [Gemcitabine] + O=C(CCCCCCC(=O)Nc1ccccc1)NO [Vorinostat] (partner 1 µM)
In short: as §1

## NCI-H23
[1]; first compound 0.001 µM
  relative viability: 0.866
[1]; first compound 0.003162 µM
  relative viability: 0.245
[1]; first compound 0.01 µM
  relative viability: 0.125
[1]; first compound 0.03162 µM
  relative viability: 0.139
[1]; first compound 0.1 µM
  relative viability: 0.124
[2]; first compound 0.001 µM
  relative viability: 0.297
[2]; first compound 0.003162 µM
  relative viability: 0.206
[2]; first compound 0.01 µM
  relative viability: 0.12
[2]; first compound 0.03162 µM
  relative viability: 0.131
[2]; first compound 0.1 µM
  relative viability: 0.152
[3]; first compound 0.001 µM
  relative viability: 0.688
[3]; first compound 0.003162 µM
  relative viability: 0.225
[3]; first compound 0.01 µM
  relative viability: 0.114
[3]; first compound 0.03162 µM
  relative viability: 0.129
[3]; first compound 0.1 µM
  relative viability: 0.114
[4]; first compound 0.001 µM
  relative viability: 0.504
[4]; first compound 0.003162 µM
  relative viability: 0.122
[4]; first compound 0.01 µM
  relative viability: 0.11
[4]; first compound 0.03162 µM
  relative viability: 0.106
[4]; first compound 0.1 µM
  relative viability: 0.109

## NCI-H520
[1]; first compound 0.001 µM
  relative viability: 1.23
[1]; first compound 0.003162 µM
  relative viability: 1.17
[1]; first compound 0.01 µM
  relative viability: 0.35
[1]; first compound 0.03162 µM
  relative viability: 0.205
[1]; first compound 0.1 µM
  relative viability: 0.158
[2]; first compound 0.001 µM
  relative viability: 0.915
[2]; first compound 0.003162 µM
  relative viability: 0.769
[2]; first compound 0.01 µM
  relative viability: 0.465
[2]; first compound 0.03162 µM
  relative viability: 0.156
[2]; first compound 0.1 µM
  relative viability: 0.108
[3]; first compound 0.001 µM
  relative viability: 0.422
[3]; first compound 0.003162 µM
  relative viability: 0.446
[3]; first compound 0.01 µM
  relative viability: 0.316
[3]; first compound 0.03162 µM
  relative viability: 0.208
[3]; first compound 0.1 µM
  relative viability: 0.239
[4]; first compound 0.001 µM
  relative viability: 0.728
[4]; first compound 0.003162 µM
  relative viability: 0.81
[4]; first compound 0.01 µM
  relative viability: 0.336
[4]; first compound 0.03162 µM
  relative viability: 0.211
[4]; first compound 0.1 µM
  relative viability: 0.157

## CAL-12T
[1]; first compound 0.001 µM
  relative viability: 1.14
[1]; first compound 0.003162 µM
  relative viability: 1.1
[1]; first compound 0.01 µM
  relative viability: 0.845
[1]; first compound 0.03162 µM
  relative viability: 0.164
[1]; first compound 0.1 µM
  relative viability: 0.141
[2]; first compound 0.001 µM
  relative viability: 0.684
[2]; first compound 0.003162 µM
  relative viability: 0.745
[2]; first compound 0.01 µM
  relative viability: 0.662
[2]; first compound 0.03162 µM
  relative viability: 0.227
[2]; first compound 0.1 µM
  relative viability: 0.104
[3]; first compound 0.001 µM
  relative viability: 0.292
[3]; first compound 0.003162 µM
  relative viability: 0.35
[3]; first compound 0.01 µM
  relative viability: 0.29
[3]; first compound 0.03162 µM
  relative viability: 0.22
[3]; first compound 0.1 µM
  relative viability: 0.129
[4]; first compound 0.001 µM
  relative viability: 0.864
[4]; first compound 0.003162 µM
  relative viability: 0.744
[4]; first compound 0.01 µM
  relative viability: 0.715
[4]; first compound 0.03162 µM
  relative viability: 0.272
[4]; first compound 0.1 µM
  relative viability: 0.178

## EPLC-272H
[1]; first compound 0.001 µM
  relative viability: 1.14
[1]; first compound 0.003162 µM
  relative viability: 0.953
[1]; first compound 0.01 µM
  relative viability: 0.395
[1]; first compound 0.03162 µM
  relative viability: 0.0915
[1]; first compound 0.1 µM
  relative viability: 0.07
[2]; first compound 0.001 µM
  relative viability: 0.766
[2]; first compound 0.003162 µM
  relative viability: 0.847
[2]; first compound 0.01 µM
  relative viability: 0.196
[2]; first compound 0.03162 µM
  relative viability: 0.175
[2]; first compound 0.1 µM
  relative viability: 0.0681
[3]; first compound 0.001 µM
  relative viability: 0.291
[3]; first compound 0.003162 µM
  relative viability: 0.295
[3]; first compound 0.01 µM
  relative viability: 0.249
[3]; first compound 0.03162 µM
  relative viability: 0.0772
[3]; first compound 0.1 µM
  relative viability: 0.0692
[4]; first compound 0.001 µM
  relative viability: 0.25
[4]; first compound 0.003162 µM
  relative viability: 0.29
[4]; first compound 0.01 µM
  relative viability: 0.254
[4]; first compound 0.03162 µM
  relative viability: 0.112
[4]; first compound 0.1 µM
  relative viability: 0.056

## NCI-H2405
[1]; first compound 0.001 µM
  relative viability: 0.992
[1]; first compound 0.003162 µM
  relative viability: 0.551
[1]; first compound 0.01 µM
  relative viability: 0.0966
[1]; first compound 0.03162 µM
  relative viability: 0.084
[1]; first compound 0.1 µM
  relative viability: 0.0831
[2]; first compound 0.001 µM
  relative viability: 0.846
[2]; first compound 0.003162 µM
  relative viability: 0.775
[2]; first compound 0.01 µM
  relative viability: 0.564
[2]; first compound 0.03162 µM
  relative viability: 0.245
[2]; first compound 0.1 µM
  relative viability: 0.22
[3]; first compound 0.001 µM
  relative viability: 0.812
[3]; first compound 0.003162 µM
  relative viability: 0.709
[3]; first compound 0.01 µM
  relative viability: 0.495
[3]; first compound 0.03162 µM
  relative viability: 0.221
[3]; first compound 0.1 µM
  relative viability: 0.216
[4]; first compound 0.001 µM
  relative viability: 1.03
[4]; first compound 0.003162 µM
  relative viability: 0.784
[4]; first compound 0.01 µM
  relative viability: 0.543
[4]; first compound 0.03162 µM
  relative viability: 0.243
[4]; first compound 0.1 µM
  relative viability: 0.197

## HCC-15
[1]; first compound 0.001 µM
  relative viability: 0.718
[1]; first compound 0.003162 µM
  relative viability: 0.702
[1]; first compound 0.01 µM
  relative viability: 0.69
[1]; first compound 0.03162 µM
  relative viability: 0.441
[1]; first compound 0.1 µM
  relative viability: 0.0936
[2]; first compound 0.001 µM
  relative viability: 0.929
[2]; first compound 0.003162 µM
  relative viability: 0.819
[2]; first compound 0.01 µM
  relative viability: 0.79
[2]; first compound 0.03162 µM
  relative viability: 0.192
[2]; first compound 0.1 µM
  relative viability: 0.0758
[3]; first compound 0.001 µM
  relative viability: 0.51
[3]; first compound 0.003162 µM
  relative viability: 0.436
[3]; first compound 0.01 µM
  relative viability: 0.39
[3]; first compound 0.03162 µM
  relative viability: 0.247
[3]; first compound 0.1 µM
  relative viability: 0.0632
[4]; first compound 0.001 µM
  relative viability: 0.908
[4]; first compound 0.003162 µM
  relative viability: 0.815
[4]; first compound 0.01 µM
  relative viability: 0.739
[4]; first compound 0.03162 µM
  relative viability: 0.247
[4]; first compound 0.1 µM
  relative viability: 0.109

## PC-3 [JPC-3]
[1]; first compound 0.001 µM
  relative viability: 0.81
[1]; first compound 0.003162 µM
  relative viability: 0.688
[1]; first compound 0.01 µM
  relative viability: 0.504
[1]; first compound 0.03162 µM
  relative viability: 0.448
[1]; first compound 0.1 µM
  relative viability: 0.281
[2]; first compound 0.001 µM
  relative viability: 1
[2]; first compound 0.003162 µM
  relative viability: 0.838
[2]; first compound 0.01 µM
  relative viability: 0.611
[2]; first compound 0.03162 µM
  relative viability: 0.295
[2]; first compound 0.1 µM
  relative viability: 0.246
[3]; first compound 0.001 µM
  relative viability: 0.902
[3]; first compound 0.003162 µM
  relative viability: 0.796
[3]; first compound 0.01 µM
  relative viability: 0.666
[3]; first compound 0.03162 µM
  relative viability: 0.264
[3]; first compound 0.1 µM
  relative viability: 0.237
[4]; first compound 0.001 µM
  relative viability: 0.659
[4]; first compound 0.003162 µM
  relative viability: 0.536
[4]; first compound 0.01 µM
  relative viability: 0.36
[4]; first compound 0.03162 µM
  relative viability: 0.338
[4]; first compound 0.1 µM
  relative viability: 0.366

## NCI-H1944
[1]; first compound 0.001 µM
  relative viability: 1.11
[1]; first compound 0.003162 µM
  relative viability: 1.01
[1]; first compound 0.01 µM
  relative viability: 0.897
[1]; first compound 0.03162 µM
  relative viability: 0.692
[1]; first compound 0.1 µM
  relative viability: 0.209
[2]; first compound 0.001 µM
  relative viability: 1.28
[2]; first compound 0.003162 µM
  relative viability: 1.02
[2]; first compound 0.01 µM
  relative viability: 0.953
[2]; first compound 0.03162 µM
  relative viability: 0.304
[2]; first compound 0.1 µM
  relative viability: 0.141
[3]; first compound 0.001 µM
  relative viability: 0.253
[3]; first compound 0.003162 µM
  relative viability: 0.266
[3]; first compound 0.01 µM
  relative viability: 0.251
[3]; first compound 0.03162 µM
  relative viability: 0.188
[3]; first compound 0.1 µM
  relative viability: 0.105
[4]; first compound 0.001 µM
  relative viability: 0.59
[4]; first compound 0.003162 µM
  relative viability: 0.572
[4]; first compound 0.01 µM
  relative viability: 0.321
[4]; first compound 0.03162 µM
  relative viability: 0.192
[4]; first compound 0.1 µM
  relative viability: 0.131
